According to patent US12291521B2, “Indazole compounds as mGluR4 allosteric potentiators, compositions, and methods of treating neurological dysfunction” (Vanderbilt University, priority 2017, dated 2025):
Read-outs that look alike come from different tables or passages of the source.

Assays:
[1] = molecular target: T1, human mGlu4 (Homo sapiens, UniProt Q14833); experiment: mGlu4 PAM potentiation in human mGlu4/Gqi5 cells with ~EC20 glutamate (Hamamatsu FDSS); assay type: cell-based; conditions: ~EC20 concentration of glutamate
T1 construct: expressed in transfected cells; host or cells: CHO (Chinese Hamster Ovary) cells
Description: The disclosed compounds and compositions can be evaluated for their ability to act as a potentiatior of metabotropic glutamate receptor activity, in particular mGluR4 activity, by any suitable known methodology known in the art. For example, Chinese Hamster Ovary (CHO) cells transfected with human mGluR4 or HEK cells co-transfected with rat mGluR4 and the G-protein regulated Inwardly Rectifying Potassium channel (GIRK) were plated in clear bottom assay plates for assay in a Hamamatsu FDSS Fluorometric Plate Reader. The cells were loaded with either a Ca2+-sensitive fluorescent dye or the thallium responsive dye and the plates were washed and placed into a suitable kinetic plate reader. For human mGluR4 assays, a fluorescence baseline was established for 3-5 seconds, the disclosed compounds were then added to the cells, and the response in cells was measured. Approximately two and a half minutes later, a concentration of mGluR4 orthosteric agonist (e.g. glutamate, L-AP4, or L-SOP) eliciting approximately 20% (EC20) of the maximal agonist response was added to the cells, and the response was measured. Two minutes later, a concentration of mGluR4 agonist (e.g. glutamate, L-AP4, or L-SOP) eliciting 80% (EC80) of the maximal agonist response was added to the cells, and the response was measured. For rat mGluR4/GIRK experiments, a baseline was established for approximately five seconds, disclosed compounds were added, and either an EC20 or EC80 concentration of agonist was added approximately two and one half minutes later.
The above described assay operated in two modes. In the first mode, a range of concentrations of the disclosed compounds are added to cells, followed by a single fixed concentration of agonist. If the compound acts as a potentiatior, an EC50 value for potentiation and a maximum extent of potentiation by the compound at this concentration of agonist is determined by non-linear curve fitting. If the compound acts as an antagonist, an IC50 value is determined by non-linear curve fitting. In the second mode, several fixed concentrations of the disclosed compounds are added to various wells on a plate, followed by a range in concentrations of agonist for each concentration of disclosed compound. The EC50 values for the agonist at each concentration of compound are determined by non-linear curve fitting. A decrease in the EC50 value of the agonist with increasing concentrations of the sample compound (a leftward shift of the agonist concentration-response curve) is an indication of the degree of mGluR4 potentiation at a given concentration of the sample compound. A decrease in the maximal response of the agonist with increasing concentrations of the sample compounds, with or without a rightward shift in agonist potency, is an indication of the degree of antagonism at mGluR4. The second mode also indicates whether the sample compounds also affect the maximum response to mGluR4 to agonists.

[2] = Brain-plasma Kp (CNS penetration); assay type: in vivo; conditions: rat, brain and plasma; species not given

T1 sequence (Q14833 33-912): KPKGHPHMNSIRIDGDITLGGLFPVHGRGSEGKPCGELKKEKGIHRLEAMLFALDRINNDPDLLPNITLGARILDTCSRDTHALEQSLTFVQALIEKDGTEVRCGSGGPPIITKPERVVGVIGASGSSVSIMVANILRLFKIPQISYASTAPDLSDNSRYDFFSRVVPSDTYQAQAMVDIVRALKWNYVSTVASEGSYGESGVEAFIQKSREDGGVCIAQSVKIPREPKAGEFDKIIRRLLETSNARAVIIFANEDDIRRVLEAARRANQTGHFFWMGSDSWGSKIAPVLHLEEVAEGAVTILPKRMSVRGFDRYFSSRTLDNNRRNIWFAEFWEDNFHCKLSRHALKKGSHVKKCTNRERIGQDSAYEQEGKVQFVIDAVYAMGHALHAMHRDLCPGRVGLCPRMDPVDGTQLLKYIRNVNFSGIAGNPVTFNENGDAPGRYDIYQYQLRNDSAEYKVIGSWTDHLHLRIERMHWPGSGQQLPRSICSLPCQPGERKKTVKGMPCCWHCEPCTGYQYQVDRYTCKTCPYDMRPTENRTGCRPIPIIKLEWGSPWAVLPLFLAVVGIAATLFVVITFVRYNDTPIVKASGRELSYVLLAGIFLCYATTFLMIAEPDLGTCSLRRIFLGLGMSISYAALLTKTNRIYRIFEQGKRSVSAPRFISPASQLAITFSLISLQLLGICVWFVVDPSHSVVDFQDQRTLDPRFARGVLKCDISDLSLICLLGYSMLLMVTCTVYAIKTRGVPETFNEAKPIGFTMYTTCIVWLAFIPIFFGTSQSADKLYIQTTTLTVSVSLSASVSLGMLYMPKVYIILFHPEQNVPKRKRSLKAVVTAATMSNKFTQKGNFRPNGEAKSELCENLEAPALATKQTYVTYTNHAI

EC50 ([1]; second chart, read-out: hmGluR4 PAM EC50) | Kp [2] | EC50 ([1]; read-out: mGlu4 PAM EC50) | SMILES
99.2 nM | 3.29 |  | Cn1nc(OCC2CCCOC2)c2ccc(NC(=O)c3ccc(F)cn3)cc21 (stereo not shown)
 |  | 82.7 nM | Cn1nc(OCc2cccnc2)c2ccc(Nc3n[nH]c4cccnc34)cc21 [Compound 6]
 |  | 231 nM | CC(C)COc1nn(C)c2cc(Nc3n[nH]c4cccnc34)ccc12 [Compound 3]
 |  | 991 nM | Cc1ccnc(C(=O)Nc2ccc3c(OCC4CCOC4)nn(C)c3c2)c1 (stereo not shown) [Compound 98]
 |  | 413 nM | CC(C)Oc1nn(C)c2cc(Nc3n[nH]c4cccnc34)ccc12 [Compound 1]
 |  | 104 nM | Cc1cc(COc2nn(C)c3cc(Nc4n[nH]c5cccnc45)ccc23)on1 [Compound 2]
